Read-outs that look alike come from different tables or passages of the source.

In experiment [1] the target is HIV RT-associated RNase H (Human immunodeficiency virus type 1 group M subtype B, UniProt P04585). It is filed as biochemical, HIV-1.
In a further experiment the target is HIV RT polymerase (Human immunodeficiency virus type 1 group M subtype B, UniProt P04585). Nature of the experiment: RT polymerase assay. It is filed as biochemical, HIV-1.
For a further experiment, the target named is HIV integrase (Human immunodeficiency virus type 1 group M subtype B, UniProt P04585). Nature of the experiment: HIV IN strand transfer assay. It is filed as biochemical.
[2] abbreviates: RNH IC50 HTS-2, HTS-2 substrate, measures DNA 3' end directed cleavage.
Setting [3] is: RNH IC50 HTS-3, HTS-3 substrate, measures RNA 5' end directed cleavage.
The mark [4] stands for this setting: RT RNase H IC50, Table 4, data with HTS-1 as substrate.

As to `O=C(O)c1c[nH]cc(O)c1=O` [10a, 5-Hydroxy-4-oxo-1,4-dihydropyridine-3-carboxylic acid], the concentration for half-maximal inhibition (IC50) in experiment [1] (setting [2]) was greater than 25 µM; in experiment [1] (setting [3]), greater than 25 µM; in experiment [1] (setting [4]) it was greater than 25 µM; against HIV RT polymerase, greater than 25 µM; on HIV RT polymerase (read-out: RT Pol IC50, Table 4), greater than 25 µM; at HIV integrase, greater than 100 µM. Besides, at HIV RT polymerase (Table 1, poly(rA)-oligo(dT)16, [3H]-TTP), the “RT Pol IC50” value was “no inhibitory activity”.
`O=C(O)c1cn(-c2ccccc2)cc(O)c1=O` [10b, 5-Hydroxy-4-oxo-1-phenyl-1,4-dihydropyridine-3-carboxylic acid]: the concentration for half-maximal inhibition (IC50) is greater than 25 µM in experiment [1] (setting [2]); greater than 25 µM in experiment [1] (setting [3]); greater than 25 µM in experiment [1] (setting [4]); greater than 25 µM on HIV RT polymerase; greater than 25 µM at HIV RT polymerase (read-out: RT Pol IC50, Table 4).
As for `O=C(O)c1cn(Cc2ccccc2)cc(O)c1=O` [10c, 1-Benzyl-5-hydroxy-4-oxo-1,4-dihydropyridine-3-carboxylic acid], the IC50 in experiment [1] (setting [2]) is greater than 25 µM; in experiment [1] (setting [3]), greater than 25 µM; in experiment [1] (setting [4]), greater than 25 µM; on HIV RT polymerase, greater than 25 µM; on HIV RT polymerase (read-out: RT Pol IC50, Table 4), greater than 25 µM.
Turning to `O=C(O)c1cn(Cc2ccc(F)cc2)cc(O)c1=O` [10d, 1-(4-Fluorobenzyl)-5-hydroxy-4-oxo-1,4-dihydropyridine-3-carboxylic acid], the IC50 in experiment [1] (setting [2]) is greater than 25 µM; in experiment [1] (setting [3]), greater than 25 µM; against HIV RT polymerase, greater than 25 µM; at HIV RT polymerase (read-out: RT Pol IC50, Table 4), greater than 25 µM.
Take `CC(c1ccc(F)cc1)n1cc(O)c(=O)c(C(=O)O)c1` (centres unmarked) [10e, 1-(1-(4-Fluorophenyl)ethyl)-5-hydroxy-4-oxo-1,4-dihydropyridine-3-carboxylic acid]: the IC50 in experiment [1] (setting [2]) was greater than 25 µM; in experiment [1] (setting [3]), greater than 25 µM; at HIV RT polymerase, greater than 25 µM; at HIV RT polymerase (read-out: RT Pol IC50, Table 4), greater than 25 µM.
As to `Cc1cc(Cn2cc(O)c(=O)c(C(=O)O)c2)ccc1F` [10f, 1-(4-Fluoro-3-methylbenzyl)-5-hydroxy-4-oxo-1,4-dihydropyridine-3-carboxylic acid], the half-inhibitory concentration (IC50) in experiment [1] (setting [2]) is greater than 25 µM; in experiment [1] (setting [3]) it was greater than 25 µM; on HIV RT polymerase it was greater than 25 µM; on HIV RT polymerase (read-out: RT Pol IC50, Table 4), greater than 25 µM; against HIV integrase, greater than 100 µM.
Regarding `O=C(O)c1cn(Cc2ccc(F)cc2F)cc(O)c1=O` [10g, 1-(2,4-Difluorobenzyl)-5-hydroxy-4-oxo-1,4-dihydropyridine-3-carboxylic acid], the half-inhibitory concentration (IC50) in experiment [1] (setting [2]) was greater than 25 µM; in experiment [1] (setting [3]), greater than 25 µM; on HIV RT polymerase it was greater than 25 µM; at HIV RT polymerase (read-out: RT Pol IC50, Table 4), greater than 25 µM; at HIV integrase, greater than 100 µM.
Turning to `O=C(O)c1cn(Cc2ccc(Cl)c(Cl)c2)cc(O)c1=O` [10i, 1-(3,4-Dichlorobenzyl)-5-hydroxy-4-oxo-1,4-dihydropyridine-3-carboxylic acid], the 50% inhibitory concentration (IC50) was greater than 25 µM in experiment [1] (setting [2]); greater than 25 µM in experiment [1] (setting [3]); greater than 25 µM at HIV RT polymerase; greater than 25 µM on HIV RT polymerase (read-out: RT Pol IC50, Table 4).
For the compound `O=C(O)c1cn(Cc2ccc(Cl)cc2Cl)cc(O)c1=O` [10j, 1-(2,4-Dichlorobenzyl)-5-hydroxy-4-oxo-1,4-dihydropyridine-3-carboxylic acid], the IC50 in experiment [1] (setting [2]) is greater than 25 µM; in experiment [1] (setting [3]) it was greater than 25 µM; on HIV RT polymerase it was greater than 25 µM; on HIV RT polymerase (read-out: RT Pol IC50, Table 4) it was greater than 25 µM.
On to `O=C(O)c1cn(Cc2ccc(F)c(Cl)c2)cc(O)c1=O` [10k, 1-(3-Chloro-4-fluorobenzyl)-5-hydroxy-4-oxo-1,4-dihydropyridine-3-carboxylic acid], for which the IC50 is greater than 25 µM in experiment [1] (setting [2]); greater than 25 µM in experiment [1] (setting [3]); greater than 25 µM against HIV RT polymerase; greater than 25 µM at HIV RT polymerase (read-out: RT Pol IC50, Table 4).
`O=C(O)c1cn(Cc2ccc(Br)cc2)cc(O)c1=O` [10l, 1-(4-Bromobenzyl)-5-hydroxy-4-oxo-1,4-dihydropyridine-3-carboxylic acid]: the IC50 in experiment [1] (setting [2]) is greater than 25 µM; in experiment [1] (setting [3]) it was greater than 25 µM; in experiment [1] (setting [4]), greater than 25 µM; against HIV RT polymerase, greater than 25 µM; on HIV RT polymerase (read-out: RT Pol IC50, Table 4), greater than 25 µM; at HIV integrase, greater than 100 µM.
Consider `O=C(O)c1cn(Cc2ccncc2)cc(O)c1=O` [10n, 5-Hydroxy-4-oxo-1-(pyridin-4-ylmethyl)-1,4-dihydropyridine-3-carboxylic acid], for which the 50% inhibitory concentration (IC50) was greater than 25 µM in experiment [1] (setting [2]); greater than 25 µM in experiment [1] (setting [3]); greater than 25 µM in experiment [1] (setting [4]); greater than 25 µM against HIV RT polymerase; greater than 25 µM at HIV RT polymerase (read-out: RT Pol IC50, Table 4); greater than 100 µM against HIV integrase.
Regarding `CS(=O)(=O)c1ccc(Cn2cc(O)c(=O)c(C(=O)O)c2)cc1` [10o, 5-Hydroxy-1-(4-(methylsulfonyl)benzyl)-4-oxo-1,4-dihydropyridine-3-carboxylic acid], the IC50 was greater than 25 µM in experiment [1] (setting [2]); greater than 25 µM in experiment [1] (setting [3]); greater than 25 µM in experiment [1] (setting [4]); greater than 25 µM against HIV RT polymerase; greater than 25 µM at HIV RT polymerase (read-out: RT Pol IC50, Table 4).
Regarding `O=C(O)c1ccc(Cn2cc(O)c(=O)c(C(=O)O)c2)cc1` [10p, 1-(4-Carboxybenzyl)-5-hydroxy-4-oxo-1,4-dihydropyridine-3-carboxylic acid], the IC50 in experiment [1] (setting [2]) was greater than 25 µM; in experiment [1] (setting [3]) it was greater than 25 µM; in experiment [1] (setting [4]) it was greater than 25 µM; on HIV RT polymerase, greater than 25 µM; on HIV RT polymerase (read-out: RT Pol IC50, Table 4), greater than 25 µM.
Compound `NS(=O)(=O)c1ccc(-c2ccc(Cn3cc(O)c(=O)c(C(=O)O)c3)cc2)cc1` [10y, 5-Hydroxy-4-oxo-1-((4'-sulfamoyl-[1,1'-biphenyl]-4-yl)methyl)-1,4-dihydropyridine-3-carboxylic acid] came in with a half-maximal inhibitory concentration (IC50) on HIV integrase greater than 100 µM.
As to `CCOC(=O)c1cn(Cc2ccc(F)cc2)cc(O)c1=O` [compound 18, Ethyl-1-(4-fluorobenzyl)-5-hydroxy-4-oxo-1,4-dihydropyridine-3-carboxylate], the IC50 in experiment [1] (setting [2]) was greater than 25 µM; in experiment [1] (setting [3]), greater than 25 µM; in experiment [1] (setting [4]), greater than 25 µM; against HIV RT polymerase, greater than 25 µM; at HIV RT polymerase (read-out: RT Pol IC50, Table 4), greater than 25 µM; against HIV integrase, greater than 100 µM.
As for `NC(=O)c1cn(Cc2ccc(F)cc2)cc(O)c1=O` [compound 20, 1-(4-Fluorobenzyl)-5-hydroxy-4-oxo-1,4-dihydropyridine-3-carboxamide], the IC50 is greater than 25 µM in experiment [1] (setting [2]); greater than 25 µM in experiment [1] (setting [3]); greater than 25 µM on HIV RT polymerase; greater than 25 µM on HIV RT polymerase (read-out: RT Pol IC50, Table 4).

Values taken from paper PMC4882222 (Journal of medicinal chemistry, 2016).
